Assay in all cases: colorimetric ELISA-like DNMT activity assay
Holding throughout (format): biochemical

In assay [1] the target is T1, full-length human DNMT1 (Homo sapiens, UniProt P26358).
The target in assay [2] is murine Dnmt3a (Mus musculus, UniProt O88508).
The target in assay [3] is T1, full-length human DNMT1. The conditions noted are these: read-out: % inhibition at 100 μM.

T1 sequence (P26358 whole entry): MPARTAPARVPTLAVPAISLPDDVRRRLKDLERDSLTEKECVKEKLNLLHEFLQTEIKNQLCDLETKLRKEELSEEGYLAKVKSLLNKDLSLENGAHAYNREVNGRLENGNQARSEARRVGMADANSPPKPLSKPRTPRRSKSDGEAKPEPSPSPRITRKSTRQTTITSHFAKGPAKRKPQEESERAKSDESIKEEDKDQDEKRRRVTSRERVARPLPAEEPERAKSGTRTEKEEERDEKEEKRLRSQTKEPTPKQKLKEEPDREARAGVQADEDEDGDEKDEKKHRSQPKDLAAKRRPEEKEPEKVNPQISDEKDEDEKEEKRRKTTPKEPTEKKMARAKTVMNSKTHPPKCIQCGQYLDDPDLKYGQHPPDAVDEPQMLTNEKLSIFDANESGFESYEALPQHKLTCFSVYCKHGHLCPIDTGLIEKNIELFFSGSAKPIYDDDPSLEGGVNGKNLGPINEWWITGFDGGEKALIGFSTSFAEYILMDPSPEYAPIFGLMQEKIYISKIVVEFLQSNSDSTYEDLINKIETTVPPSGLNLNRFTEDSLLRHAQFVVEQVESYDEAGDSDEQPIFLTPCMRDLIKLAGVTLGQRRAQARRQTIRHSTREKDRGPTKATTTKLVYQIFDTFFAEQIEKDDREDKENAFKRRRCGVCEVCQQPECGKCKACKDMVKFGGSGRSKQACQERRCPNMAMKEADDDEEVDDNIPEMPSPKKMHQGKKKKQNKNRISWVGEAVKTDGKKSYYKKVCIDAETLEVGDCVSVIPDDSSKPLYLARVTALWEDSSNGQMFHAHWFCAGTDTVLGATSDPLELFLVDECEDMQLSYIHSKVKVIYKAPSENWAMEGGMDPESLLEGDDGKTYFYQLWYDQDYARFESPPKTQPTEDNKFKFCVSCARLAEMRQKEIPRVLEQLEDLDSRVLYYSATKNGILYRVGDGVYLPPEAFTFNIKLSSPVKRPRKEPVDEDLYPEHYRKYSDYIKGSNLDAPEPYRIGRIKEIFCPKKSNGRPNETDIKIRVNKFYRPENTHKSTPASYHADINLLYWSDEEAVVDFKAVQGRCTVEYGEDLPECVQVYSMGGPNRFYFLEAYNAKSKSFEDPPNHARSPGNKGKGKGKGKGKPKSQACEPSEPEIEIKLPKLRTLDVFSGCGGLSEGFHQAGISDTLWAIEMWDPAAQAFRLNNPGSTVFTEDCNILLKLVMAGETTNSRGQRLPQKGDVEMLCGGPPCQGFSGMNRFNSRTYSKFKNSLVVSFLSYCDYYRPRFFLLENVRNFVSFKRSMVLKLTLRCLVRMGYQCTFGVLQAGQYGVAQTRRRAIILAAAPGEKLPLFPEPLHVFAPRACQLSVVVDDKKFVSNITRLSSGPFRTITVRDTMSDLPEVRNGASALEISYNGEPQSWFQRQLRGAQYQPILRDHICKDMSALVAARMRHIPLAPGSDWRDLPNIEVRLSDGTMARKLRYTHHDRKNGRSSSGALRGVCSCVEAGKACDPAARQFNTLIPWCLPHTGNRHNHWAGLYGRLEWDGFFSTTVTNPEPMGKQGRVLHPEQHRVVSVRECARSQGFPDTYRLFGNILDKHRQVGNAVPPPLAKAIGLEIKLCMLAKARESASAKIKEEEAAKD

For `O=C(O[C@@H]1Cc2c(O)cc(O)cc2O[C@@H]1c1cc(O)c(O)c(O)c1)c1cc(O)c(O)c(O)c1` [EGCG], half-maximal inhibition in assay [1] (IC50) required 700 nM.

As for `O=C(O)C1=CC(=C(c2ccc(O)c(C(=O)O)c2)c2ccc(O)c(C(=O)O)c2)C=CC1=O` [aurintricarboxylic acid], the IC50 stood at 1400 nM in assay [2] and 680 nM in assay [1].

Turning to `O=C(O)[C@H](Cc1c[nH]c2ccccc12)N1C(=O)c2ccccc2C1=O` [RG108], in assay [3], the inhibition at 100 µM came out at 11%.

Usually IC50 stands for the concentration that inhibits the measured activity by half. High values mean lower potency, low ones higher potency. One may read the inhibition as the percentage by which the read-out fell short of the control.

For the origin of these results see article PMC3837394 (Advances in Protein Chemistry and Structural Biology, 2012).
